Reference: patent US8110570B2, “Modulators of acetyl-coenzyme A carboxylase and methods of use thereof” (Cropsolution, Inc., priority 2008, dated 2012)

Tests used:
[1] = target: uACC (Ustilago maydis ACC) (Ustilago maydis, UniProt A0A0D1DYD5); assay: [14C]bicarbonate incorporation assay, overall ACC activity; format: biochemical
hACC1-CT = target: T1, hACC1-CT (Homo sapiens, UniProt Q13085); assay: acetyl-CoA/malonyl-CoA isotope exchange assay, CT half-reaction; format: biochemical
T1 construct: PCR primers were designed for full-length hACC1 and hACC2 using GenBank submissions AY237919 and AJ575592, respectively; His tag (C); made in house; host or cells: baculovirus, Sf9 insect cells
Protocol: Overall ACC activity is comprised of two half-reactions, the BC reaction (the ATP-dependent carboxylation of biotin) and the CT reaction (the transfer of the carboxyl group from biotin to acetyl-CoA to form malonyl-CoA). Thus, it is of interest to localize the site of action of ACC inhibitors. To this end, representative compounds are tested in an acetyl-CoA/malonyl-CoA isotope exchange reaction which specifically measures the CT-half reaction. This assay is performed with slight modifications of published procedures (Gregolin et al., J Biol Chem, 1968, 243:4227-4235; Rendina et al., J Agric Food Chem, 1990, 38:1282-1287). Briefly, the reaction mixture (50 μL) contained 50 mM Hepes (pH 7.4), 20 mM K-citrate, 1.5 mM MgSO4, 4 mM malonyl-CoA, 1.67 mM acetyl-CoA, 0.34 mM [^14C]acetyl-CoA (about 60 mCi/mmol), 0.75 mg/mL BSA, and 1% (v/v) DMSO with or without inhibitor. Reactions are initiated by the addition of hACCl (0.3 μg) or hACC2 (0.15 μg) enzyme and incubated at 37° C. for 10 min. Reactions are stopped by addition of a 0.2M sodium arsenate solution containing 1U of phosphotransacetylase (13.5 μL) and incubation at room temperature for 30 min. […] The samples are then resuspended in water (200 μL), added to scintillation cocktail (3 mL), and counted in a scintillation counter to quantify radiolabel incorporated into malonyl-CoA. […]

C2C12 cells = assay: Fatty acid oxidation assay, [1-14C]palmitate to CO2; format: cell-based, mouse; settings: compared to untreated controls
Excerpt: The in vivo ACC inhibitory activity of compounds in this invention can be confirmed in cultured cells using standard procedures that are well known to those skilled in the art. For example, since ACC catalyzes the first committed step in fatty acid biosynthesis, the in vivo activity of compounds can be confirmed by measuring their ability to prevent the formation of radiolabeled fatty acids from radiolabeled acetate in cultured human hepatoma cells (HepG2). In addition, since the malonyl-CoA produced by ACC inhibits fatty acid oxidation, the in vivo ACC inhibitory activity of compounds can be further confirmed by measuring the stimulation of fatty acid oxidation in cultured mouse myoblast cells (C2C12).
Fatty acid oxidation assays are performed essentially as described (Beckers et al., Cancer Res, 2007, 67: 8180-8187). Briefly, C2C12 cells are plated at 600,000 cells/T25 flask. The next day, media is changed and the DMSO with or without test compound is added to a final concentration of 0.5% (v/v). After 1 h at 37° C. in atmosphere of 5% CO2, freshly made 2 uCi of FA-free bovine serum albumin-[1-^14C] palmitate complex is added to each flask. The flasks are then sealed with a stopper and incubated 6 h at 37° C. after which evolved CO2 is liberated by injection of perchloric acid to final concentration of 5% and captured by incubating the flasks overnight in the presence of filter paper soaked with 5% KOH. The filters are then air-dried and incubated with scintillation cocktail overnight for equilibrium. Radioactivity is quantified by scintillation counting.

Sequence of uACC (Ustilago maydis ACC) (A0A0D1DYD5 entry or part of it): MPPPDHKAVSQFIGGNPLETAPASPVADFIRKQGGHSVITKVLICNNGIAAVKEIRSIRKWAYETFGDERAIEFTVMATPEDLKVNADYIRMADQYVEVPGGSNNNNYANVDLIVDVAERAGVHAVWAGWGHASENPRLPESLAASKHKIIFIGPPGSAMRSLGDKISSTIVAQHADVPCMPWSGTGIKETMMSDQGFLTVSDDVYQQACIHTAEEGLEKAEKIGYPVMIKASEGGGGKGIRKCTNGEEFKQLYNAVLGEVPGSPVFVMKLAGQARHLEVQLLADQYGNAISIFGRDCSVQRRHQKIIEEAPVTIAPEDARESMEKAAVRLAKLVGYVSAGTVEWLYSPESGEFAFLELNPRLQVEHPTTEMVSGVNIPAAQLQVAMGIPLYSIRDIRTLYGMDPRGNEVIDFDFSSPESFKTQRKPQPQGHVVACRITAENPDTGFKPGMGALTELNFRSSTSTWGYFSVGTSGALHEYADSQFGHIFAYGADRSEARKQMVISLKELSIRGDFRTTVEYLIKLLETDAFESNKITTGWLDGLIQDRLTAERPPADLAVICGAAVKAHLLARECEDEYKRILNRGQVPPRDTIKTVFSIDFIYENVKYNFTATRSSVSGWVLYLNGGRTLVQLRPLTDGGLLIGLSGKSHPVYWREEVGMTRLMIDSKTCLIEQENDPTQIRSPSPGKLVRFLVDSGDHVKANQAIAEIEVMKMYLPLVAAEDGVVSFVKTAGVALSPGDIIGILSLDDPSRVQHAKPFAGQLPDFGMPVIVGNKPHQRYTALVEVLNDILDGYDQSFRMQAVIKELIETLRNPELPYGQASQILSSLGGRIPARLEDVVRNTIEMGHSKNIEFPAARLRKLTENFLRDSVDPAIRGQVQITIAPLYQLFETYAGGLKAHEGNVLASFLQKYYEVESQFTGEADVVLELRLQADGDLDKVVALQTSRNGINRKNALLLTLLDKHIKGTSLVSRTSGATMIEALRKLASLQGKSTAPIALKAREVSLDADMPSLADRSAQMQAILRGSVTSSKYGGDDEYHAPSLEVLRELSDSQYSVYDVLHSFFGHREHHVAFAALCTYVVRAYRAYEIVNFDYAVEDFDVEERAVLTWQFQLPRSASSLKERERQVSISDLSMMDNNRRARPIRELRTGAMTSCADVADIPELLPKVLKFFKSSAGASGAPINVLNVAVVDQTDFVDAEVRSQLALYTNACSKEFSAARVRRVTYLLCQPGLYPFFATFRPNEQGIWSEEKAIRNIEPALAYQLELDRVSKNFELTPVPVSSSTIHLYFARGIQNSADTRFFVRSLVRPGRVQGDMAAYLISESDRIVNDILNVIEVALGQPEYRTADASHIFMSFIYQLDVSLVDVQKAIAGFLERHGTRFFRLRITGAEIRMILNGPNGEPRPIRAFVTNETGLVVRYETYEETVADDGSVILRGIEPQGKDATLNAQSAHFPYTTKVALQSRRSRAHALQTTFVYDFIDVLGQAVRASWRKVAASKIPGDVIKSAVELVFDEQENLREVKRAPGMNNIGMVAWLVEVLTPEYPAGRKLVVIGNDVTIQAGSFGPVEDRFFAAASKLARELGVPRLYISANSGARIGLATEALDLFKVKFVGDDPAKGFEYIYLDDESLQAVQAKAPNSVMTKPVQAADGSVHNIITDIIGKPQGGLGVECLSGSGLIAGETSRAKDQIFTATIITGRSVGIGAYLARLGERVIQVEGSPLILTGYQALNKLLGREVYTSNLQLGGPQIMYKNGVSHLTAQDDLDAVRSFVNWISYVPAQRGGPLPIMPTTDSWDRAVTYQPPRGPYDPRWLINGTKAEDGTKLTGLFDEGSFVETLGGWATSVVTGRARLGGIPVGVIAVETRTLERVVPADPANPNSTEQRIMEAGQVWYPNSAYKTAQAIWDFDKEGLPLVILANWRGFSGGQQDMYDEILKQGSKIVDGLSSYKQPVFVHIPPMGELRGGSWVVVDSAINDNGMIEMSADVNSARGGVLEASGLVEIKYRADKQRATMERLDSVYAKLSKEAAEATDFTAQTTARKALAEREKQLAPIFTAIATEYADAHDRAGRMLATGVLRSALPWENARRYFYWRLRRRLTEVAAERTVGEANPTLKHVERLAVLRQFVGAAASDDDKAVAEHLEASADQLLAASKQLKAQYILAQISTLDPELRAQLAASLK

## COc1cc(C(=O)N2CCC3(CC2)NC(=O)c2cc(Br)ccc2O3)nc2c(OC)cccc12 [Compound 2, 6-Bromo-1′-[(4,8-dimethoxyquinoline-2-yl)carbonyl]spiro[2H-1,3-benzoxazine-2,4′-piperidine]-4(3H)-one]
[1]
  IC50: 11 µM
hACC1-CT
  IC50: 0.1 µM
C2C12 cells; C2C12, 0.1 μM
  stimulation of fatty acid oxidation: 170%
C2C12 cells; C2C12, 1 μM
  stimulation of fatty acid oxidation: 320%
